Literature values as cited in patent publication US10045948B2, “Pramipexole-containing transdermal patch for treatment of neurodegenerative disease” (MEDRX CO., LTD., priority 2014, dated 2018).

Conditions: in vivo

Patients with rash and other types of inflammation at the application site: 40-50%
Substance: rotigotine
